Read-outs that look alike come from different tables or passages of the source.
Assays:
[1] = tested on: tuberculostatic; settings: in vitro (J. Chem. Soc., 1956, 713-16); cited from earlier work
[2] = tested on: carrageenin-induced edema in the hind paw of a rat; assay: Carrageenin Assay (carrageenin-induced edema, hind paw); assay type: in vivo, rat (male, Long Evans strain); settings: 1 h before carrageenin, edema at 3 h, compared to phenylbutazone control values; for inhibition in vivo at 40 mg/kg: 40 mg/kg oral
Method: The procedure employed is a modification of the method of Winter et al, Proc. Soc. Exptl. Biol. Med. 111:544 (1962). The device used for measurement of the paw volume is an adaptation of the water displacement procedure described by Adamkiewicz et al, Can. J. Biochem. Physiol. 33:332 (1955). Test compounds were administered orally, one hour prior to the intraplantar injection of 0.05 ml. of sterile 1.0 percent solution of carrageenin into the left hind paw of male rats (Long Evans strain) weighing between about 130-200 grams. At peak swelling time (3 hours) the volume of edema was calculated by differential paw volumes.
Table I sets forth the results obtained (indicated as percent reduction of edema compared to phenylbutazone control values) at the indicated dosages for each of the identified compounds.

[3] = tested on: yeast induced fever; assay: Antipyretic Assay (yeast induced fever); assay type: in vivo; settings: for temps. at 191/2 hrs. / temps. at 18 hrs. (Test Compounds Administered) / temps. at 0 hr.: 100 mg/kg; for temps. at 191/2 hrs.: 1 1/2 hrs. after administration; for temps. at 18 hrs. (Test Compounds Administered): at time of administration; for temps. at 0 hr.: before yeast fever and compound
Method: As indicated previously, certain of the compounds of the invention also display excellent antipyretic activity. […] Antipyretic activity was measured utilizing the conventional yeast induced fever assay procedure (15% yeast solution injected at two sites).

[4] = tested on: adjuvant-induced arthritis, hind paw of the rat; assay: Adjuvant-Arthritis Assay; assay type: in vivo
[5] = tested on: phenylquinone writhing in mice; assay: Phenylquinone Writhing Assay (analgesia); assay type: in vivo, mouse (Carworth CF1 male mice); settings: for responders at 12.5 mg/kg: 12.5 mg/kg oral; for responders at 25 mg/kg: 25 mg/kg oral; for responders at 50 mg/kg: 50 mg/kg oral; for responders at 10 mg/kg: 10 mg/kg oral; for responders at 15 mg/kg: 15 mg/kg oral
Outline: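 Male CF1 mice (ten per group) dosed orally in 0.25% methylcellulose, then challenged i.p. with 0.02% phenylquinone at 15, 30, 60 or 120 min post-dose. Mice showing no writhing over 10 min count as protected; percent analgesia = number protected ×10.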

[6] = tested on: antihypertensive; settings: Burger, Medicinal Chemistry, 3rd Ed., 1027; cited from earlier work
[7] = tested on: central nervous system activity in mice; assay: Neuropharmacological Profile; assay type: in vivo, mouse (white male Carworth Farm Strain CF-1); settings: 300,100,30,10 mg/kg intraperitoneal
Method: The central nervous system activity of certain of the preferred compounds in accordance with the present invention were determined using the following neuropharmacological profile assay procedures.
White male mice of the Carworth Farm Strain (CF-1) weighing 18-22 grams were used in these determinations. […] Intraperitoneal injections were administered in logarithmic progression and sequentially. The dose levels employed routinely are 10, 30, 100, and 300 mg/kg, using four male mice at each dose level. Since this test was conducted in a sequential manner, the first dose administered was at 300 mg/kg. The mice were injected at this dose level and observed for gross changes produced by the drug, such as behavioral, neurological, autonomic, and toxic effects.
The animals were observed continuously for one hour and if no signs of pharmacological or toxicological activity were present at the end of the first hour, they were intermittently checked for activity every fifteen minutes thereafter for two consecutive hours. […] Subsequent dose levels below 300 mg/kg were not administered in this case. Alternatively, if demonstrable pharmacological changes occurred within the first three hours after administration of the drug at 300 mg/kg, the subsequent doses were administered and the animals observed for changes in overt behavior. The observation period begins immediately following the injection and the animals are then continuously observed for three hours and intermittently checked thereafter for forty-eight hours. The animals were observed and signs and symptoms of pharmacological activity were recorded continuously until no further symptoms developed and until the symptoms that had appeared were no longer present. […] It was very important that the animals were free to move about for evaluation of spacial orientation, alertness, and spontaneous motor activity. The animals were systematically observed and manipulated to measure the onset, peak effect, duration and character of drug action.
The major characteristics observed relative to central nervous system activity for the compounds indicated are summarized in the following Table IV.

[8] = tested on: Spontaneously hypertensive rats; assay: SHR Assay (anti-hypertensive); assay type: in vivo, rat (spontaneously hypertensive); settings: for Mean Drop (systolic blood pressure): dose 100, oral
Method: Spontaneously hypertensive rats, 12 to 16 weeks of age, were used in this assay. Systolic blood pressures were determined by the tail cuff method, utilizing capacitance transducers for the detection of pressure, an aneroid manometer for measuring pressure, and an oscilloscope for visualizing the disappearance and/or appearance of the pressure pulse. Heart rate was measured by a biotachometer. Groups of five rats having systolic blood pressures of 170 mmHg or greater were chosen and the test compounds administered at the doses indicated below (oral) as a solution or suspension in 0.25% methylcellulose (MC) at a volume of 5 ml/kg. One group served as the control and received the vehicle. Twenty-four hours after dosing, systolic blood pressure and heart rate were recorded. A second dose of compound was administered and blood pressure and heart rate determined at 4 and 24 hours after the second dose.

[9] = Mus musculus, po, 0.25 h, 15 Min., read-out: Phenylquinone Writhing Assay (% Control), percent analgesia
[10] = Mus musculus, po, 0.5 h, 30 Min., read-out: Phenylquinone Writhing Assay (% Control), percent analgesia
[11] = Mus musculus, po, 1 h, 60 Min, read-out: Phenylquinone Writhing Assay (% Control), percent analgesia
[12] = Rattus norvegicus, read-out: % Reduction of Edema

In the case of `Cc1nnc(S)nc1C` [3-mercapto-5,6-dimethyl-1,2,4-triazine], the tuberculostatic activity [1] is given as “tuberculostatic in vitro”.
With `COc1nncc(-c2ccccc2)n1` [Example 2, 3-methoxy-5-phenyl-1,2,4-triazine] the inhibition in vivo at 200 mg/kg ([2]; Rattus norvegicus, 200 mg/kg oral, read-out: % Reduction of Edema) was 86%, the “temps. at 191/2 hrs.” value [3] was 35.3 and the “temps. at 18 hrs. (Test Compounds Administered)” value [3] was 39.0. The “temps. at 0 hr.” value [3] was 38.1, the antipyretic activity ([3]; compared to aspirin) was “comparable in activity to aspirin” and the “Adjuvant-Arthritis Assay (% Reduction)” value ([4]; 40 mg/kg oral once daily, Day 3, developing disease) was 39%. The “Adjuvant-Arthritis Assay (% Reduction)” value ([4]; 40 mg/kg oral once daily, Day 10, developing disease) was 23%, the “Adjuvant-Arthritis Assay (% Reduction)” value ([4]; 40 mg/kg oral once daily, Day 17, developing disease) was 0% and the “Adjuvant-Arthritis Assay (% Reduction)” value ([4]; 80 mg/kg oral once daily, Day 3, developing disease) was 40%. The “Adjuvant-Arthritis Assay (% Reduction)” value ([4]; 80 mg/kg oral once daily, Day 10, developing disease) was 18%, the “Adjuvant-Arthritis Assay (% Reduction)” value ([4]; 80 mg/kg oral once daily, Day 17, developing disease) was 0% and the “Adjuvant-Arthritis Assay (% Reduction)” value ([4]; 120 mg/kg oral once daily, Day 3, developing disease) was 30%. For the same compound, the “Adjuvant-Arthritis Assay (% Reduction)” value ([4]; 120 mg/kg oral once daily, Day 10, developing disease) was 13%, the “Adjuvant-Arthritis Assay (% Reduction)” value ([4]; 120 mg/kg oral once daily, Day 17, developing disease) was 21% and the responders at 12.5 mg/kg [5, 9] was 10%. The responders at 25 mg/kg [5, 9] was 40%, the responders at 50 mg/kg [5, 9] was 90% and the responders at 12.5 mg/kg [5, 10] was 30%. For the same compound, the responders at 25 mg/kg [5, 10] was 60%, the responders at 50 mg/kg [5, 10] was 80% and the responders at 12.5 mg/kg [5, 11] was 30%. The responders at 25 mg/kg [5, 11] was 50% and the responders at 50 mg/kg [5, 11] was 70%.
For `CC(=O)Oc1ccccc1C(=O)O` [Aspirin, reference compound], the “temps. at 191/2 hrs.” value [3] was 37.8, the “temps. at 18 hrs. (Test Compounds Administered)” value [3] was 38.8 and the “temps. at 0 hr.” value [3] was 38.0.
In the case of `NNc1nncc(-c2ccccc2)n1` [Example 3, 3-hydrazino-5-phenyl-1,2,4-triazine], the inhibition in vivo at 40 mg/kg [2, 12] is listed as 55%, the antihypertensive activity [6] is listed as “moderately active antihypertensive agent” and the responders at 100 mg/kg ([5]; Mus musculus, po, 0.25 h, 100 mg/kg oral, 15 Min., read-out: Phenylquinone Writhing Assay (% Control), percent analgesia) is listed as 100%. The responders at 30 mg/kg ([5]; Mus musculus, po, 0.5 h, 30 mg/kg oral, 30 Min., read-out: Phenylquinone Writhing Assay (% Control), percent analgesia) was 30%, the responders at 70 mg/kg ([5]; Mus musculus, po, 0.5 h, 70 mg/kg oral, 30 Min., read-out: Phenylquinone Writhing Assay (% Control), percent analgesia) was 90% and the “CNS Activity” value [7] was “Antidepressant”.
With “3-Methylhydrazino-5-Phenyl-1,2,4-Triazine [Example 3A]” the “% Reduction of Edema” value ([2]; 100 mg/kg oral) was 76%, the “Phenylquinone Writhing Assay (% Control), percent analgesia” value ([5]; 100 mg/kg oral, 15 Min.) was 60% and the “Phenylquinone Writhing Assay (% Control), percent analgesia” value ([5]; 100 mg/kg oral, 30 Min.) was 30%. For the same compound, the “Phenylquinone Writhing Assay (% Control), percent analgesia” value ([5]; 100 mg/kg oral, 60 Min) was 30%, the “Mean Drop (systolic blood pressure)” value ([8]; 4 hr.) was 0 mm/Hg and the “Mean Drop (systolic blood pressure)” value ([8]; 24 hr.) was 49 mm/Hg. The “Mean Drop (systolic blood pressure)” value ([8]; second 4 hr. column (after second dose)) was 56 mm/Hg and the “Mean Drop (systolic blood pressure)” value ([8]; second 24 hr column (after second dose)) was 92 mm/Hg.
`Cc1nnc(NN)nc1C` [Example 25, 3-hydrazino-5,6-dimethyl-1,2,4-triazine] gave an inhibition in vivo at 40 mg/kg [2, 12] of 46%, a responders at 10 mg/kg [5, 9] of 20% and a responders at 10 mg/kg [5, 10] of 10%. For the same compound, the responders at 12.5 mg/kg [5, 10] was 20%, the responders at 25 mg/kg [5, 10] was 90% and the “CNS Activity” value [7] was “Antidepressant”.
In the case of `O=C(NNc1nncc(-c2ccccc2)n1)C(F)(F)F` [Example 7, 3-trifluoroacetyl hydrazino-5-phenyl-1,2,4-triazine], the inhibition in vivo at 150 mg/kg ([2]; Rattus norvegicus, 150 mg/kg oral, read-out: % Reduction of Edema) is reported as 41%, the “Adjuvant-Arthritis Assay (% Reduction)” value ([4]; 50 mg/kg oral once daily, Day 3, developing disease) is reported as 30% and the “Adjuvant-Arthritis Assay (% Reduction)” value ([4]; 50 mg/kg oral once daily, Day 10, developing disease) is reported as 30%. For the same compound, the “Adjuvant-Arthritis Assay (% Reduction)” value ([4]; 50 mg/kg oral once daily, Day 17, developing disease) was 39%, the “Adjuvant-Arthritis Assay (% Reduction)” value ([4]; 50 mg/kg oral, Day 20, established disease) was 4% and the “Adjuvant-Arthritis Assay (% Reduction)” value ([4]; 50 mg/kg oral, Day 27, established disease) was 24%. The “Adjuvant-Arthritis Assay (% Reduction)” value ([4]; 50 mg/kg oral, Day 31, established disease) was 29%, the responders at 15 mg/kg [5, 9] was 50% and the responders at 15 mg/kg [5, 11] was 10%. The “duration of activity (hypotensive)” value ([8]; rat, in vivo) was “long duration of activity” and the “onset of action (hypotensive)” value ([8]; rat, in vivo) was “advantageous rapid onset of action”.

From patent publication US4157392A, “Pharmacologically active substituted 1,2,4-triazines” (Diamond Shamrock Corporation, priority 1978, dated 1979)
